Laboratory results from patent US20050148786A1, “Diimmonium compound and use thereof” (Nippon Kayaku Kabushiki Kaisha, priority 2003, published 2005).

Columns and labels:
[1] = maximum absorption wavelength (λmax) in dichloromethane; type: physicochemical
Description: λmax: 1,102 nm (in dichloromethane);

[2] = thermal decomposition point (weight decrease starting point) by TG-DTA; type: physicochemical; conditions: measured by TG-DTA
Procedure: the melting point: around 170° C.; and the thermal decomposition point (the weight decrease starting point): around 280° C. (measured by TG-DTA)

[3] = Comparative test of molar absorption coefficient measurement; type: physicochemical; conditions: in dichloromethane; in M-1·cm-1
Description: The compounds obtained in the above-mentioned Examples were subjected to the measurement of molar absorption coefficient (ε) in dichloromethane.

[4] = Stability test of moisture-and-heat resistance of near-IR absorption filter; type: physicochemical; conditions: for b* value, difference: 14-day after minus initial, 60° C. and 95% RH; for b* value, 14-day after / b* value, initial period: acrylic resin filter; for b* value, 14-day after: 14 days at 60° C. and 95% RH; for b* value, initial period: before test
Procedure: (§1) 1.2 part of each compound obtained in each Example was dissolved in 18.8 part of MEK. 80 part of a resin solution obtained by dissolving 25 part of an acrylic resin (Dianal BR-80, manufactured by Mitsubishi Rayon Co., Ltd.) in 75 part of MEK was mixed with the obtained solution to obtain a solution for coating. The solution was applied to form a film with a thickness of 2 to 4 μm on a polyester film and dried at 80° C. to obtain a near-IR absorption filter of the invention.
The obtained near-IR absorption filter was subjected to a stability test of moisture-and-heat resistance for 14 days in a constant temperature and constant humidity apparatus under 60° C. and 95% RH conditions. The filter was subjected to color measurement by a spectrophotometer before and after the test to calculate L*, a*, and b* values. If the + value of b* value is high, it means that the hue is yellowish and if b* value is close to 0, it means that the yellowish degree is low and filter is desirable and therefore, the hue evaluation and stability evaluation were done based on the b* value and its change.

[5] = Stability test of heat resistance of near-IR absorption filter; type: physicochemical; conditions: for b* value, initial period / b* value, 14-day after: acrylic resin filter; for b* value, initial period: before test; for b* value, 14-day after / b* value, difference: oven at 80° C.; for b* value, 14-day after: head prints 14-day, text 21 days; for b* value, difference: after minus initial
Procedure: as §1
[…] After that, the filters were subjected to color measurement by a spectrophotometer to calculate L*, a*, and b* values and their stability was evaluated based on the change in b* values. If the b* is low, that is, the absorption in visible ray region is low, the near-IR absorption filter is preferable.

[6] = Comparative test of solubility measurement; conditions: room temperature; for solubility in MEK: methyl ethyl ketone
Procedure: The solubility was measured for the compounds obtained in the above-mentioned Examples at a room temperature in methyl ethyl ketone (MEK) and toluene.

[7] = Stability test of light fastness of cyanine dye film; type: physicochemical
Procedure: 0.3 part of the cyanine dye (OM-57) was dissolved in 15 part of tetrafluoropropanol and 0.04 part of the Compound No. 3 was added to the obtained solution to produce a coating solution. The obtained coating solution was applied to a polycarbonate substrate by spin coating to form a dye film. The […] the conditions: light source output: 0.36 W/m^2; bath temperature: 24° C.; black panel temperature: 40° C.; humidity: 30% RH: by a Weatherometer (Ci4000, manufactured by Atlas Co.). After that, the remaining ratio of the cyanine dye was measured by a spectrophotometer.
For comparison, a dye film was formed and evaluated in the same manner, except that the compound described in Patent Document No. 3; hexafluoroantimonate of tetrakis[p-di(n-butyl)aminophenyl]phenylenediimmonium (Comparative Example 7: Compound No. 153); was used in place of the Compound No. 1.

[8] = Stability test of light fastness of diimmonium compound thin film; type: physicochemical
Procedure: 0.1 part of the Compound No. 3 was added to 10 part of tetrafluoropropanol to produce a coating solution. The obtained coating solution was applied to a polycarbonate substrate by spin coating to form a thin film of the diimmonium compound. The […] source output: 0.36 W/m^2; bath temperature: 24° C.; black panel temperature: 40° C.; humidity: 30% RH: by a Weatherometer (Ci4000, manufactured by Atlas Co.). After that, the remaining ratio of the diimmonium compound was measured by a spectrophotometer.
For comparison, a dye film was formed and evaluated in the same manner, except that the compound described in Patent Document No. 3; hexafluoroantimonate of tetrakis[p-di(n-butyl)aminophenyl]phenylenediimmonium (Comparative Example 8: Compound No. 153); was used in place of the Compound No. 3.

[9] = Weatherometer 0.36 W/m^2, 24° C., 30% RH, 100-hour
[10] = Weatherometer 0.36 W/m^2, 24° C., 30% RH, 150-hour

Row | SMILES | molar absorption coefficient (ε) [3] | b* value, difference [4] | b* value, 14-day after [4] | b* value, initial period [4] | b* value, initial period [5] | b* value, 14-day after [5] | b* value, difference [5] | λmax [1] | thermal decomposition point (the weight decrease starting point) [2] | also measured
1 | CC(C)CN(CC(C)C)c1ccc([N+](=C2C=CC(=[N+](c3ccc(N(CC(C)C)CC(C)C)cc3)c3ccc(N(CC(C)C)CC(C)C)cc3)C=C2)c2ccc(N(CC(C)C)CC(C)C)cc2)cc1 [Compound No. 2] | 109,000 | 1.9 | 4.1 | 2.2 | 2.2 | 3.7 | 1.5 | 1,104 nm | around 282 °C | –
2 | CC(C)CCN(CCC(C)C)c1ccc([N+](=C2C=CC(=[N+](c3ccc(N(CCC(C)C)CCC(C)C)cc3)c3ccc(N(CCC(C)C)CCC(C)C)cc3)C=C2)c2ccc(N(CCC(C)C)CCC(C)C)cc2)cc1.O=S(=O)([N-]S(=O)(=O)C(F)(F)F)C(F)(F)F.O=S(=O)([N-]S(=O)(=O)C(F)(F)F)C(F)(F)F [Compound No. 4] | 110,000 | 2.1 | 4.3 | 2.2 | 2.4 | 3.8 | 1.6 | 1,102 nm | around 280 °C | solubility in MEK [6]: 10%; solubility in toluene [6]: 0.1%
3 | N#CCCCCN(CCCCC#N)c1ccc([N+](=C2C=CC(=[N+](c3ccc(N(CCCCC#N)CCCCC#N)cc3)c3ccc(N(CCCCC#N)CCCCC#N)cc3)C=C2)c2ccc(N(CCCCC#N)CCCCC#N)cc2)cc1.O=S(=O)([N-]S(=O)(=O)C(F)(F)F)C(F)(F)F.O=S(=O)([N-]S(=O)(=O)C(F)(F)F)C(F)(F)F [Compound No. 9] | 109,000 | 1.9 | 4.3 | 2.4 | – | – | – | 1,086 nm | around 277 °C | –
4 | CCN(CC)c1ccc([N+](=C2C=CC(=[N+](c3ccc(N(CC)CC)cc3)c3ccc(N(CC)CC)cc3)C=C2)c2ccc(N(CC)CC)cc2)cc1.O=S(=O)([N-]S(=O)(=O)C(F)(F)F)C(F)(F)F.O=S(=O)([N-]S(=O)(=O)C(F)(F)F)C(F)(F)F [Compound No. 12] | 96,000 | – | – | – | – | – | – | 1,084 nm | around 278 °C | –
5 | CCCCN(CCCC#N)c1ccc([N+](=C2C=CC(=[N+](c3ccc(N(CCCC)CCCC#N)cc3)c3ccc(N(CCCC)CCCC#N)cc3)C=C2)c2ccc(N(CCCC)CCCC#N)cc2)cc1.O=S(=O)([N-]S(=O)(=O)C(F)(F)F)C(F)(F)F.O=S(=O)([N-]S(=O)(=O)C(F)(F)F)C(F)(F)F [Compound No. 35] | – | – | – | – | – | – | – | 1,090 nm | around 256 °C | –
6 | CCCCN(CCCC)c1ccc([N+](=C2C=CC(=[N+](c3ccc(N(CCCC)CCCC)cc3)c3ccc(N(CCCC)CCCC)cc3)C=C2)c2ccc(N(CCCC)CCCC)cc2)cc1.O=S(=O)([O-])c1cccc2c(S(=O)(=O)[O-])cccc12 [Compound No. 151, 1,5-naphthalenedisulfonic acid salt of N,N,N′,N′-tetrakis[p-di(n-butyl)aminophenyl]phenylenediimmonium, reference compound] | 82,000 | – | – | – | – | – | – | – | – | –
7 | CCCCN(CCCC)c1ccc([N+](=C2C=CC(=[N+](c3ccc(N(CCCC)CCCC)cc3)c3ccc(N(CCCC)CCCC)cc3)C=C2)c2ccc(N(CCCC)CCCC)cc2)cc1.O=S(=O)([O-])c1ccc2c(S(=O)(=O)[O-])cccc2c1O [Compound No. 152, 1-hydroxy-2,5-naphthalenedisulfonic acid salt of N,N,N′,N′-tetrakis[p-di(n-butyl)aminophenyl]phenylenediimmonium, reference compound] | 24,500 | – | – | – | – | – | – | – | – | –
8 | N#CCCCN(CCCC#N)c1ccc([N+](=C2C=CC(=[N+](c3ccc(N(CCCC#N)CCCC#N)cc3)c3ccc(N(CCCC#N)CCCC#N)cc3)C=C2)c2ccc(N(CCCC#N)CCCC#N)cc2)cc1.[F][Sb-]([F])([F])([F])([F])[F].[F][Sb-]([F])([F])([F])([F])[F] [Compound No. 154, hexafluoroantimonate of N,N,N′,N′-tetrakis[p-di(3-cyanopropyl)aminophenyl]phenylene diimmonium, reference compound] | – | – | – | – | – | – | – | – | – | solubility in MEK [6]: insoluble; solubility in toluene [6]: insoluble

More lines, main results first:

Row | molar absorption coefficient (ε) [3] | b* value, difference [4] | b* value, 14-day after [4] | b* value, initial period [4] | b* value, initial period [5] | b* value, 14-day after [5] | b* value, difference [5] | SMILES | λmax [1] | thermal decomposition point (the weight decrease starting point) [2] | also measured
9 | 108,000 | 1.8 | 5.3 | 3.5 | 3.5 | 5.3 | 1.8 | CCCCN(CCCC)c1ccc([N+](=C2C=CC(=[N+](c3ccc(N(CCCC)CCCC)cc3)c3ccc(N(CCCC)CCCC)cc3)C=C2)c2ccc(N(CCCC)CCCC)cc2)cc1 [Compound No. 1] | 1,102 nm | around 280 °C | –
10 | – | – | – | – | 2.5 | 4.4 | 1.9 | CCCCN(CCCC)c1ccc([N+](=C2C=CC(=[N+](c3ccc(N(CCCC)CCCC)cc3)c3ccc(N(CCCC)CCCC)cc3)C=C2)c2ccc(N(CCCC)CCCC)cc2)cc1.[F][Sb-]([F])([F])([F])([F])[F].[F][Sb-]([F])([F])([F])([F])[F] [Compound No. 153, hexafluoroantimonate of N,N,N′,N′-tetrakis[p-di(n-butyl)aminophenyl]phenylenediimmonium, reference compound] | – | – | remaining ratio of cyanine dye (%), initial period ([7]; OM-57 dye film with compound added, before irradiation): 100%; remaining ratio of cyanine dye (%), 100-hour after [7, 9]: 27%; remaining ratio of cyanine dye (%), 150-hour after [7, 10]: 0%; remaining ratio of diimmonium compound (%), 100-hour after [8, 9]: 81%; remaining ratio of diimmonium compound (%), 150-hour after [8, 10]: 76%; remaining ratio of diimmonium compound (%), initial period ([8]; thin film on polycarbonate, before irradiation): 100%; solubility in MEK [6]: 4.5%; solubility in toluene [6]: insoluble
11 | – | 6.1 | 9.0 | 2.9 | – | – | – | CCCCN(CCCC)c1ccc([N+](=C2C=CC(=[N+](c3ccc(N(CCCC)CCCC)cc3)c3ccc(N(CCCC)CCCC)cc3)C=C2)c2ccc(N(CCCC)CCCC)cc2)cc1.F[P-](F)(F)(F)(F)F.F[P-](F)(F)(F)(F)F [Compound No. 155, hexafluorophosphate of N,N,N′,N′-tetrakis[p-di(n-butyl)aminophenyl]-p-phenylenediimmonium, reference compound] | – | – | –
12 | – | 10.8 | 14.3 | 3.5 | – | – | – | CCCCN(CCCC)c1ccc([N+](=C2C=CC(=[N+](c3ccc(N(CCCC)CCCC)cc3)c3ccc(N(CCCC)CCCC)cc3)C=C2)c2ccc(N(CCCC)CCCC)cc2)cc1.F[B-](F)(F)F.F[B-](F)(F)F [Compound No. 156, borofluoride salt of N,N,N′,N′-tetrakis[p-di(n-butyl)aminophenyl]phenylene diimmonium, reference compound] | – | – | –
